In patent US9078864B2, “Agonists for antimicrobial peptide systems” (priority 2008, dated 2015):
“Also recorded” adds a separate entry of the source.

Key:
[1] = system: PBA and butyrate induced CAMP gene expression; assay: Inhibition of PBA and butyrate induced CAMP gene expression by cycloheximide in VA10 cells; assay type: cell-based, human; conditions: 20 μg/ml one hour prior to stimulation, 24 hours
Protocol: VA10 cells were treated with 4 mM PBA or butyrate (BA) in the presence or absence of 20 μg/ml cycloheximide. CAMP mRNA levels were determined by real time RT-PCR. Individual samples were normalized to total RNA input. Results were normalized to expression in control samples (solvent) where controls were given the arbitrary value of one. Normalized data is plotted as mean plus standard error of the mean from at least three independent experiments. *: p<0.05; **: p<0.01; ***: p<0.001.
In order to assess whether the PBA and butyrate induction pathways of CAMP gene expression are direct, VA10 cells were treated with PBA or butyrate in the presence and absence of cycloheximide (CHX). After 24 hours of incubation, total RNA was isolated and CAMP mRNA levels measured using real time RT-PCR.

[2] = system: CAMP gene, encoding LL-37; assay: CAMP (LL-37) mRNA expression in VA10 lung epithelial cells, real time RT-PCR; assay type: cell-based, human; conditions: for CAMP mRNA expression: 4 mM
Protocol: LL-37 expression in lung epithelial cells treated with different agents Lung epithelial cells (VA 10) were grown to confluency under standard conditions and the agents to be tested added at the indicated concentrations (see below). mRNA was isolated 24 hours after treatment and measured by real time reverse transcription PCR.
Six-well plates were seeded with 1.0×10^6 cells per well and grown for two days. Medium was then exchanged and different wells were left untreated, supplemented with 2 mM sodium butyrate or 2 mM sodium 4-phenylbutyrate. The cells were incubated for 48 h and total RNA was prepared using the RNEasy kit (Qiagen). Total RNA concentrations were measured using the Quant-iT RiboGreen RNA assay kit (Invitrogen). Superscript III first-strand synthesis system (Invitrogen) was used to synthesize cDNA using random primers according to the protocol of the manufacturer. […] Results were normalized to total RNA quantity, presented as relative fold induction of untreated control cells.
Total RNA was isolated from the cells and CAMP mRNA expression levels analyzed by real time RT-PCR.

[3] = system: PBA induced CAMP gene expression; assay: Inhibition of PBA induced CAMP gene expression by MAP kinase inhibitors in VA10 cells; assay type: cell-based, human; conditions: 20 μM inhibitor one hour prior to 4 mM PBA, 24 hours
Protocol: FIG. 6B. […] CAMP mRNA levels were determined by real time RT-PCR. Individual samples were normalized to total RNA input. Results were normalized to expression in control samples where controls were given the arbitrary value of one. Normalized data is plotted as mean+SE from three independent experiments. *: P<0.05; **: P<0.01; ***: P<0.001
The effect of inhibitors for c-Jun N-terminal kinase (JNK), p38 kinase and extracellular signal-regulated kinase ½ (ERK½) on PBA induced CAMP gene expression were also investigated as shown in FIG. 6B. One hour prior to stimulation with 4 mM PBA, VA10 cells were pre incubated with 20 μM SP600125, SB203580 or U0126 to inhibit the respective kinases. After 24 hours of incubation, total RNA was isolated and analyzed by real time RT-PCR for CAMP mRNA.

[4] = system: LL-37 mRNA; conditions: colonocytes in vitro; cited from earlier work
[5] = system: shigellosis; CAP-18 (the rabbit homologue of LL-37); conditions: rabbits; cited from earlier work
[6] = system: defensin; conditions: similar concentrations, FIG. 7 of US2002-0076393; cited from earlier work
[7] = cited from earlier work; for safety of topical (enema) dosing: 528 mg/day to 1.12 g/day, 2-6 weeks, adult IBD patients
[8] = system: cathelicidin; conditions: 4000 IU/d oral for 21 days, atopic dermatitis subjects; cited from earlier work
[9] = system: CAMP mRNA in HT-29 (Human colonic adenocarcinoma cell line); assay: CAMP gene expression by PBA in HT-29 cells; assay type: cell-based; conditions: 4 mM, 8, 24 and 48 hours
Protocol: (§1) FIG. 3: Induction of CAMP gene mRNA expression by PBA. A) VA10 cells were stimulated with the indicated concentrations of PBA or solvent (Control) for 24 hours. B) VA10 cells were stimulated with 4 mM PBA or treated with solvent alone and harvested after the indicated period of time. C) A498, HT-29 and U937 cells were stimulated with 4 mM PBA or solvent only and harvested after the indicated period of time. CAMP mRNA levels were determined by real time RT-PCR. Individual samples were normalized to total RNA input. Results were normalized to expression in control samples where controls were given the arbitrary value of one. The normalized data is plotted as mean+SE from at least three independent experiments.
(§2) In order to investigate the effect of PBA on other cell lines, HT-29 (Human colonic adenocarcinoma cell line), […] (Human renal carcinoma cell line) and U937 (Human leukemic monocyte lymphoma cell line) were stimulated with 4 mM PBA for 8, 24 and 48 hours. Total RNA was isolated from the cells and CAMP mRNA expression levels analyzed by real time RT-PCR.

[10] = system: CAMP mRNA in A497 (Human renal carcinoma cell line); assay: CAMP gene expression by PBA in A497 cells; assay type: cell-based; conditions: 4 mM, 8, 24 and 48 hours
Protocol: as §1, §2

[11] = system: CAMP mRNA in U937 (Human leukemic monocyte lymphoma cell line); assay: CAMP gene expression by PBA in U937 cells; assay type: cell-based; conditions: 4 mM, 8, 24 and 48 hours
Protocol: as §1, §2

[12] = system: acetylation of histone H3 and H4 at the CAMP gene proximal promoter; assay: Histone H3 and H4 acetylation at the CAMP gene promoter, quantitative ChIP in VA10 cells; assay type: cell-based, human; conditions: 4 mM, 24 hours, listed as PBA
Protocol: FIG. 9: VA10 cells were stimulated with 4 mM of PBA or solvent alone (Control) for 24 hours. Acetylation of histone H3 and H4 was analyzed by quantitative ChIP using antibodies against the respective acetylated histones. Results were normalized to normal rabbit IgG and total input and plotted as fold precipitation over IgG. Normalized data is plotted as mean+SE from independent experiments (n=3).
The effect of PBA on acetylation of histone H3 and H4 by quantitative chromatin immunoprecipitation was assessed.

[13] = system: VDR co-activator genes; assay: VDR co-activator mRNA levels in VA10 cells, real time RT-PCR; assay type: cell-based, human; conditions: 4 mM, 24 hours
Protocol: (§3) VA10 cells were stimulated with 4 mM of PBA or solvent alone (Control) for 24 hours. mRNA levels of the respective VDR co-activators were determined by real time RT-PCR. Individual samples were normalized to total RNA input. Results were normalized to expression in control samples where controls were given the arbitrary value of one. Data is normalized to control and plotted as mean+SE from three independent experiments.
Hypothesizing that the synergistic effect between PBA and 1,25(OH)2D3 was due to an induction of VDR co-activator genes by PBA, we analyzed the effect of PBA on mRNA levels of several known VDR co-activator genes in VA10. […] These co-activators are therefore not involved in the PBA-induced effects on gene expression.

[14] = system: hBD-1 mRNA; assay: hBD-1 mRNA expression in VA10 cells, real time RT-PCR; assay type: cell-based, human; conditions: 4 mM, 24 hours, compared with CAMP induction
Protocol: as §3, with “FIG. 11: Induction of hBD-1 mRNA expression by PBA. VA10” for “VA10”, “hours. hBD-1” for “hours.”, “levels” for “levels of the respective VDR co-activators”, “RT-PCR, CAMP induction shown for comparison.” for “RT-PCR.”, “from at least” for “from”
CAMP is not the only antimicrobial defense gene that is induced by PBA.

[15] = system: CAP-18 (the rabbit homologue to LL-37); assay: Shigella infected rabbits treated with glyceryl tributyrate, CAP-18 immunohistochemistry; assay type: in vivo; conditions: oral, 47 μmol/kg twice daily for 3 days, Shigella flexneri 2a
Protocol: Animal model: Inbred New Zealand White rabbits of either gender weighing 1.8 to 2 kg were used for the study. The animals were individually caged in a room maintained at 22-25° C. Before inclusion in the study, health status of the rabbits was determined by physical examination, culture of stool and rectal swab specimens and fecal parasitic examination. Healthy coccidia-free rabbits that were also free of enteric pathogens (e.g. Salmonella, Shigella, Vibrio cholera) were studied. Rabbits were infected with Shigella and divided into two groups, one group was treated orally with glyceryl tributyrate and the other with saline. Expression of the CAP-18 peptide and its proform in colonic and rectal tissue specimens were analyzed in healthy rabbits, in untreated infected rabbits, in infected and healthy rabbits treated with glycerol tributyrate. For analyses of toxicity effects of glycerol tributyrate healthy rabbits were also treated with this compound.
Bacterial strain and inoculum preparation: The Shigella flexneri 2a strain was isolated from stool of a patient. The strain was positive for the Serény test and Congo red binding, reflecting invasive properties (Berkhoff, H. A. and Vinal, A. C., 1986, Avian Dis. 30, 117-121)) From this stock, bacteria were subcultured on trypticase soya agar (TSA; Becton Dickinson, Sparks, Md.) plates and cultured overnight at 37° C. […]

**Q.** What does the source list for `C[C@@H]1C[C@@H]([C@H](O)CC2CC(=O)NC(=O)C2)C(=O)[C@@H](C)C1` [CHX, cycloheximide]?
**A.** PBA induced CAMP gene expression in presence of cycloheximide ([1]; 4 mM PBA): effectively blocked; butyrate induced CAMP gene expression in presence of cycloheximide ([1]; 4 mM butyrate): effectively blocked

**Q.** Which “CAMP mRNA expression” value ([2]; VA10 cells, 24 hours) does the source give for `CC(Cc1ccccc1)C(=O)O` (stereo not drawn) [ST7, α-methylhydrocinnamate] here?
**A.** significantly increased

**Q.** Which “CAMP mRNA expression” value ([2]; VA10 cells, 24 hours) does the source give for `CCC(C)(C)C(=O)O` [ST20, 2,2-dimethylbutyrate] here?
**A.** no apparent effect

**Q.** Which “PBA induced CAMP gene expression in presence of inhibitor” value [3] does the source give for `N#CC(=C(/N)Sc1ccccc1N)/C(C#N)=C(\N)Sc1ccccc1N` [U0126] here?
**A.** significantly reduced

**Q.** Which results are given for `CCCC(=O)[O-].[Na+]` [butyrate, sodium butyrate]?
**A.** LL-37 mRNA expression [4]: increases; CAP-18 in the surface epithelium [5]: significant upregulation; clinical illness and bacterial load in the stool [5]: reduced clinical illness and bacterial load in the stool; activity in stimulating production of defensin relative to isoleucine [6]: less active than isoleucine at similar concentrations; safety of topical (enema) dosing [7]: safe with no obvious side effects; safety of oral dosing ([7]; daily oral dose of 4 g, colonic-targeted tablets, 6 weeks, IBD patients): safe and well tolerated without any adverse effects

**Q.** With `CC(C)C(=O)O` [isobutyrate] as the molecule, how does the “LL-37 mRNA expression” value [4] read?
**A.** increases

**Q.** Which “cathelicidin expression in AD lesional skin” value [8] does the source give for `C=C1CC[C@H](O)C/C1=C/C=C1\CCC[C@]2(C)[C@@H]([C@H](C)CCCC(C)C)CC[C@@H]12` [oral vitamin D] here?
**A.** statistically significant increase

**Q.** Which “LL-37 mRNA expression” value [4] does the source give for `CCC(=O)O` [propionate] here?
**A.** increases

**Q.** For `O=C([O-])CCCc1ccccc1.[Na+]` [sodium 4-phenylbutyrate], which “dose dependence of response at higher concentrations” value ([2]; 8 mM, earlier experiments, results not shown) is on record?
**A.** ceased to be dose-dependent

**Q.** What about the “LL-37 mRNA expression (fold-induction of CAMP mRNA)” value ([2]; VA10 cells, 2 mM, 24 hours, compared with sodium butyrate 2 mM and vitamin D3 100 nM) of the same molecule?
**A.** more effective inducer of LL-37 mRNA expression than butyrate or vitamin D

**Q.** And the “time and dose dependence of CAMP mRNA expression” value ([2]; VA10 cells, 4 mM over different time points, different concentrations for 24 hours)?
**A.** dependent on PBA dose and increased over time

**Q.** What about the “CAMP mRNA expression” value [9] of the same molecule?
**A.** significantly increased

**Q.** What about the “CAMP mRNA expression” value [10] of the same molecule?
**A.** significantly increased

**Q.** What about the “CAMP mRNA expression” value [11] of the same molecule?
**A.** significantly increased

**Q.** And the “histone H3 and H4 acetylation at the CAMP gene proximal promoter” value [12]?
**A.** No significant differences; also recorded: No significant change

**Q.** What about the “mRNA levels of VDR co-activator genes” value [13] of the same molecule?
**A.** None of the genes were significantly upregulated

**Q.** And the “hBD-1 mRNA expression” value [14]?
**A.** induced, although at lower level than CAMP

**Q.** And the “safety of topical (enema) dosing” value [7]?
**A.** None of these studies reported any adverse effect or reactions

**Q.** For `CCCC(=O)OCC(COC(=O)CCC)OC(=O)CCC` [tributyrylglycerol, glyceryl tributyrate], which “CAP-18 expression in surface epithelial cells of Shigella infected rabbits” value [15] is on record?
**A.** counteracted; also recorded: reverted and/or prevented
